Legend:
G-actin = target: T1, G-actin (Oryctolagus cuniculus, UniProt P68135); assay: Isothermal titration calorimetry, binding to monomeric actin; set-up: species or system rabbit; settings: isothermal titration calorimetry, 25° C.; read-out: Kd
T1 construct: Actin was purified from rabbit muscle acetone powder; tissue Pel-Freez Biologicals (acetone powder); host or cells: rabbit muscle acetone powder
Method: Isothermal Titration Calorimetry. A solution of rabbit skeletal muscle actin (5-10 μM) was titrated with bistramide A or its analog (50-100 μM) at 25° C. in buffer containing 2 mM Tris HCl, pH 8.0, 0.2 mM CaCl2, 0.01% NaN3, 0.2 mM ATP, 0.2 mM 2-mercaptoethanol. Dissociation constants were calculated from the binding curve using Origin analytical software (OriginLab) with the binding model involving a single set of identical sites

filamentous actin = filamentous actin (Oryctolagus cuniculus, UniProt P68135); assay: TIRF microscopy of Oregon green-labeled actin filaments with analog 10; format: biochemical; settings: 1.5 μM solution
Method: Encouraged by the initially observed potent G-actin binding affinity of 10, we next employed time-lapse total internal reflection fluorescence (TIRF) microscopy to examine the effects of this compound on depolymerization of filamentous actin in vitro. We initially assembled individual actin filaments by elongating them from a pool of 1.0 μM Mg-ATP-actin monomers supplemented with a trace of […] Mg-ATP-actin monomers labeled with Oregon green for visualization. The resulting filaments were incubated with either a solution of buffer or a 1.5 μM solution of 10 and imaged with TIRF microscopy. […] Similar to our previous observations, the mechanism of actin depolymerization by 10 entailed formation of multiple filaments breaks, which in turn created subsequent points for actin disassembly.

F-actin in A549 cells = assay: Fluorescent visualization of F-actin in A549 cells (Alexa Fluor 488 phalloidin); format: cell-based, human
Method: The presence of the enone increased the severing efficiency of the analogs three-fold. […] We determined whether it was the depletion of actin filaments by analogs 2-5 which was responsible for the growth inhibition of A549 cells. Each of the compounds was incubated with A549 cells for 2 h at a concentration that exceeded the GI50 value by a factor of 5. The cells were then fixed, permeabilized and filamentous actin was visualized by fluorescence microscopy following Alexa Fluor 488 phalloidin staining. […] They induced depolymerization at 150 nM for bistramide A (1), 500 nM for analog 2 and 2 μM for analog 3. Analogs 4 and 5 induced depolymerization of actin only at concentrations as high as 100 μM. […] This observation was consistent with the enhanced cell-based activity of the compounds containing the C(1)-C(4) enone moiety.
Fluorescent Visualization Of F-Actin In Cells. A549 cells grown on coverslips were incubated with analogs 4-8 (100 μM) analog 3 (2 μM) or analog 2 (500 nM) or bistramide A (150 nM) in F-12K cell culture medium for 2 h, fixed with 3% formaldehyde in PBS at 25° C. for 5 min and permeabilized with 0.1% Triton X-100 at 25° C. for 10 min. After washing with PBS, coverslips were stained with Alexa Fluor 488 Phalloidin and visualized by fluorescence microscopy.

[1] = system: F-actin in DU145 prostate cancer cell line; assay: F-actin depolymerization in DU145 prostate cancer cell line; format: cell-based, human
From the text: We also examined the ability of 10 to depolymerize F-actin in live cells. The actin cytoskeleton can be readily visualized by fluorescent microscopy following Alexa Fluor 488 phalloidin staining.

PC3 cells = assay: Growth of PC3 cells over 96 h; format: cell-based, human; settings: same growth conditions
Method: Cell Viability Assays. All assays were performed using at least three replicate wells for each concentration tested. Original 10-25 mM DMSO stock solution of bistramide A or its analogs was diluted to 100 μM for analogs 4-8, 10 μM for analog 3, 5 μM for analog 2 and 1 μM for bistramide A (1) with F-12K cell culture media supplemented with 10% fetal bovine serum, 100 I.U./ml penicillin, 100 μg/ml streptomycin and 2 mM L-glutamine. Two-fold serial dilutions were performed and used for cell-based assays. A549 cells were grown in 96-well white plates at the density of 1,000 cells per well in 100 μl F-12K cell culture media. Cells were allowed to attach over 24 h and treated with 30 μl of the drug solution and incubated further for 48 h. After incubation, cell viability was determined using luminescence-based commercial kit (CellTiter-Glo, Promega) and luminescence measured using a Wallac Victor 3 plate reader. To measure cell growth inhibition, viability assays were performed twice: at initial time point T0 and after 48 h incubation (T48). Change in the number of viable cells was measured, and GI50 was calculated from sigmoidal plots. For analog 10, growth of A549 and PC3 cells was monitored over 96 h following addition of the drug. 100 μM was the highest concentration tested. At no point did the total DMSO conc. exceed 1%.

[2] = Single dose i.p. toxicity in mice; format: in vivo; settings: daily weight and behavior
Method: (§1) Initially, we established that 10 had no observed toxicity in mice up to 50 mg/kg a single dose administered i.p. Toxicity was assessed by daily weight measurements and mouse behavior compared to non-injected mice. Next, we established tumor xenografts by injecting A549 cells subcutaneously into two groups of nude athymic mice (6 animals per group). The first group was injected only with DMSO control. The second group of animals received three i.p. doses of analog 10 (20 mg/kg) on the 3rd, 5th and 7th day after the initial tumor challenge. Tumor growth was monitored over a period of five weeks. The tumor grew rapidly in the control mice population and reached an average size of 731 mm^3 at the end of 4 weeks. […] The average tumor size for this population was 308 mm^3 after 4 weeks.

A549 tumor xenografts = assay: A549 tumor xenograft growth in nude athymic mice; format: in vivo; settings: 20 mg/kg i.p. on 3rd, 5th and 7th day
Method: as §1
A population of 22 nude athymic mice was injected subcutaneously with A549 cells (10^7 cells in 100 μl PBS each). A subpopulation of 12 mice was injected with analog 10 in 1% DMSO at 20 mg/kg on the 3rd, 5th and 7th day following treatment with A549 cells. A control population of 10 mice was injected with 1% DMSO. Tumor growth was measured over 5 weeks.

HL-60(TB) = assay: NCI 60 cell line single dose screen; format: cell-based, human; settings: HL-60(TB) (Leukemia), 10 micromolar, 48 h

**Q.** Which Kd (G-actin) does the source give for `COCCC(=O)NC[C@H](O)[C@H](C)C(=O)NCCC[C@H]1O[C@@]2(CCC[C@@H](CC[C@H](C)/C=C(\C)[C@H](C)O)O2)CCC1C` (some centres unmarked) [Analog 10] here?
**A.** The Kd was 9 nM.

**Q.** And the “effect on F-actin filaments” value (filamentous actin)?
**A.** Its value is “rapid filament disassembly”.

**Q.** What about the “F-actin depolymerization in A549 cells” value (F-actin in A549 cells) of the same compound?
**A.** The value was “depolymerized F-actin in A549 cells in a dose-dependent manner”.

**Q.** And the “concentration at which noticeable actin disassembly was detected” value (F-actin in A549 cells; A549 cells)?
**A.** Its value is 250 nM.

**Q.** What about the “F-actin depolymerization in DU145 cells” value [1] of the same compound?
**A.** The value was “A similar effect of 10 on F-actin depolymerization was also observed”.

**Q.** What about the “sensitivity of PC3 cells compared with A549 cells” value (PC3 cells) of the same compound?
**A.** The value was “substantially less sensitive”.

**Q.** What about the “dose with no observed toxicity” value [2] of the same compound?
**A.** The value was “up to 50 mg/kg”.

**Q.** What about the drug-based cytotoxicity (A549 tumor xenografts) of the same compound?
**A.** Its drug-based cytotoxicity is “no significant drug-based cytotoxicity was observed”.

**Q.** And the tumor growth (A549 tumor xenografts)?
**A.** The tumor growth was “substantially inhibited”.

**Q.** What about the average tumor size (A549 tumor xenografts; after 4 weeks) of the same compound?
**A.** Its average tumor size is 308 mm^3.

**Q.** And the “Growth Percent” value (HL-60(TB))?
**A.** The value was 51.51%.

Reference: US8350062B2, “Synthesis and anticancer activity of new actin-targeting small-molecule agents” (priority 2009, dated 2013)
